# Key:
# Cancer cells = test: Clonogenicity of cancer cells, colony counting; type: cell-based; conditions: 200 cells per well, 10 days
# Experimental: The impact of example compounds on clonogenicity was analyzed. Cancer cells were plated in 6-well plates at 200 cells per well. Cells were treated with individual compounds at various concentrations. Cells were maintained with changes of the medium plus compounds for 10 days. The colonies were then fixed in 1:3 Acetic acid—Methanol solution for 5 minutes, stained with 0.02% crystal violet for 20 minutes and counted.
# [1] = test system: mouse pancreatic cancer cell Panc 2 cells, or human pancreatic cancer Panc 1 cells; test: Cell cycle progression (G0/G1 arrest), PI staining, flow cytometry; type: cell-based; conditions: 48 h treatment
# Experimental: The effect of example compounds on cell cycle progression was analyzed. The tumor cells, mouse pancreatic cancer cell Panc 2 cells, or human pancreatic cancer Panc 1 cells, were treated with the individual compounds at concentrations that were efficacious for mitochondrial uncoupling for 48 h, whereas the control group was treated with vehicle DMSO. Cells were then fixed with ice-cold 70% ethanol on ice for 30 minutes. After that, 5 μl of propidium iodide (PI) (Sigma, P 4170, 1 mg/ml) solution and 50 μl of RNAse A (Sigma, R-4875) solutions were added to the fixed cells, which were then kept for 30 minutes in the dark at room temperature. The cell cycle profile of the cells was analyzed by flow cytometry. […] Table IV below summarizes the activity of other example compounds on inducing G0/G1 cell cycle arrest.
# [2] = test system: mouse myoblast C2C12 cells; test: Oxygen consumption rate (OCR) assay with Seahorse XF96 or XF24, mitochondrial uncoupling; type: cell-based; conditions: 10% fetal bovine serum, in the presence of oligomycin 2.5 μM, read-out: Cmin (minimal concentration to induce ATP synthase-independent OCR increase)
# Source text: By definition, mitochondrial uncoupling is the decoupling of mitochondrial electron transport chain activity (mitochondrial oxidation) from ATP synthesis by mitochondrial ATP synthase. Technically, mitochondrial uncoupling activity is defined by the ability of a chemical compound to induce oxygen consumption of cells or isolated mitochondria in the presence of a mitochondrial ATP synthase inhibitor such as oligomycin. Accordingly, we determined mitochondrial uncoupling activity by oxygen consumption rate (OCR) assay with a Seahorse XF96 or a Seahorse XF24 instrument following the vendor's instruction, using mouse myoblast C2C12 cells growing in medium containing 10% fetal bovine serum. […] The minimal concentration (Cmin) of each compound under which OCR is induced in the presence of oligomycin, was determined.
# [3] = test system: Human colon cancer HCT116 cell line and human lung cancer cell line H1299; test: Cancer cell growth inhibition, NCI protocol, SRB staining; type: cell-based; conditions: 48 h incubation, HCT116 and H1299 cells, read-out: GI50, 50% growth inhibition activity
# Experimental: The effect of example compounds on cancer cell growth was evaluated. The cell growth inhibition assays were performed using a protocol standardized by National Cancer Institute (NCI) for evaluating anti-cancer drugs (https://dtp.cancer.gov/discovery_development/nci-60/methodology.htm). Human colon cancer HCT116 cell line and human lung cancer cell line H1299 were used for the assays. The human tumor cells were inoculated into 96 well microtiter plates. After cell inoculation, the microtiter plates were incubated for cell growth for 24 h prior to addition of compounds. After 24 h, two plates of each cell line were fixed in situ with TCA, to represent a measurement of the cell population for each cell line at the time of compound addition (Tz). Test compounds were solubilized in dimethyl sulfoxide, At the time of test compound addition, five 10-fold or ½ log serial dilutions were made to provide a total of five test compound concentrations plus control. Aliquots of 100 μl of these different test compound dilutions were added to the appropriate microtiter wells already containing 100 μl of medium, resulting in the required final test compound concentrations. Following test compound addition, the plates were incubated for an additional 48 h. The assay was terminated by the addition of cold TCA, Cells were fixed in situ with 50 μl of cold 50% (w/v) TCA (final concentration, 10% TCA), washed five times with tap water and air dried. Sulforhodamine B (SRB) solution (100 ul) at 0.4% (w/v) in 1% acetic acid was added to each well, and plates were incubated for 10 minutes at room temperature. After staining, unbound dye was removed by washing five times with 1% acetic acid and the plates were air dried. […] Using the seven absorbance measurements [time zero, (Tz), control growth, (C), and test growth in the presence of compound at the five concentration levels (Ti)], the percentage growth was calculated at each of the test compound concentrations levels.
# [4] = test system: NIH-3T3 cells, or HepG2 cells; test: Mitochondrial membrane potential assay, TMRE staining; type: cell-based; conditions: 2 h; two hours treatment, TMRE 100 nM; read-out: EC50, mitochondrial membrane potential reduction (TMRE staining reduced to about 50%)
# Experimental: Mitochondrial uncoupling may also lead to a reduction of mitochondrial membrane potential. We performed mitochondrial membrane potential assay using TMRE (tetramethylrhodamine ethyl ester) staining method with cultured mammalian cells, the NIH-3T3 cells, or HepG2 cells. Cells were seeded onto 6-well plates and cultured in DMEM medium supplemented with 10% fetal bovine serum and 2 mM glutamine. Cells were allowed to grow to logarithmic growth phase prior to experiments. The cells were treated with each individual compound at various concentrations for two hours, followed by staining with TMRE at final concentration of 100 nM for 15 minutes. The cells were then washed once with PBS, and examined under fluorescence microscopy. Cells treated with various concentrations of niclosamide ethanolamine were used as positive control. Reduction of mitochondrial TMRE staining was estimated as a quantification of mitochondrial uncoupling activity. […] The following table (Table II) summarizes the activity of individual compounds in reducing mitochondrial membrane potential in cultured mammalian cells.
# [5] = test system: Panc 2 cells injected into the spleen of NOD-scid mice; test: Hepatic metastasis of pancreatic cancer mouse model; type: in vivo; conditions: chow containing 750 ppm compound
# Experimental: The in vivo anti-cancer efficacy of an example compound, Compound 28, was examined using a well-established hepatic metastasis of pancreatic cancer mouse model. The mouse pancreatic cancer cells, Panc 2 cells (0.25 million cells), were injected into the spleen of immune compromised NOD-scid mice. The mice were randomized to two groups (n=6 each group), one group was fed normal chow, the second group was fed chow containing 750 ppm Compound 28. Three weeks later, mice were sacrificed and the hepatic metastasis of the pancreatic cancer was observed (FIGS. 5A-5B) and quantified (FIGS. 6A-6B) in control and Compound 28 treated mice.
# [6] = test system: HFD-induced diabetic mouse model; test: High-fat diet (HFD)-induced fatty liver and diabetic mouse model; type: in vivo; conditions: HFD containing 600 ppm compound
# Source text: To test the efficacy of compounds in treating type 2 diabetes in vivo, we used Compound 28 as an example, and determined its effect in reducing blood glucose, reducing blood insulin concentration, improving insulin sensitivity and reducing fatty liver in a clinically relevant mouse model, the HFD-induced fatty liver and diabetic model. C57B6/J male mice were fed HFD (60% calorie from fat) for 4 months, starting at age of 2 months, to induce high blood glucose, high blood insulin, and insulin tolerance symptoms of type 2 diabetes as well as fatty liver. The mice then either continued with HFD or with HFD containing 600 ppm Compound 28. Blood glucose, blood insulin levels were measured and glucose tolerance assay was performed to measure insulin sensitivity. The mice were sacrificed and the effect of Compound 28 on fatty liver development was evaluated by comparing the liver weight.
SMILES,minimal effective concentration [2] [µM],GI50 [3] [µM],EC50 [4] [µM],also measured
"Cc1cc(Cl)cc(C(=O)Nc2nc3ccc(C(F)(F)F)cc3s2)c1O [Compound 1, 5-Chloro-2-hydroxy-3-methyl-N-(6-(trifluoromethyl)benzo[d]thiazol-2-yl)benzamide]",–,–,–,"IC95, Concentration that reduces clonogenicity by 95% (Cancer cells): *** (*** <10 μM); effective concentration that can arrest cell cycle at G0/G1 phase [1]: *** (*** <10 μM)"
"O=C(Nc1nc2c(F)cc(F)cc2s1)c1cc(Cl)ccc1O [Compound 23, 5-Chloro-N-(4,6-difluorobenzo[d]thiazol-2-yl)-2-hydroxybenzamide]",< 10,< 10,–,–
"O=C(Nc1nc2c(C(F)(F)F)cc(F)cc2s1)c1cc(Cl)ccc1O [Compound 24, 5-Chloro-N-(6-fluoro-4-(trifluoromethyl)benzo[d]thiazol-2-yl)-2-hydroxybenzamide]",< 10,< 10,< 10,–
"CCc1cc(Cl)cc(C(=O)Nc2nc3ccc(C(F)(F)F)cc3s2)c1O [Compound 27, 5-Chloro-3-ethyl-2-hydroxy-N-(6-(trifluoromethyl)benzo[d]thiazol-2-yl)benzamide]",< 10,< 10,< 10,"IC95, Concentration that reduces clonogenicity by 95% (Cancer cells): *** (*** <10 μM); effective concentration that can arrest cell cycle at G0/G1 phase [1]: *** (*** <10 μM)"
"Cc1cc(Cl)cc(C(=O)Nc2nc3ccc(C(F)(F)F)cc3s2)c1O [Compound 28, 5-Chloro-2-hydroxy-3-methyl-N-(6-(trifluoromethyl)benzo[d]thiazol-2-yl)benzamide ethanolamine]",< 10,< 10,–,blood plasma concentrations [5]: in the range of efficacious concentration for uncoupling mitochondria; hepatic tumor metastasis ([5]; three weeks): little or no hepatic tumor metastasis; metastatic tumor volume ([5]; three weeks): dramatically reduced; number of metastatic tumor nodules ([5]; three weeks): dramatically reduced; blood glucose concentration ([6]; C57B6/J male mice): markedly reduced; blood insulin concentration ([6]; C57B6/J male mice): markedly reduced; fatty liver weight caused by high fat diet ([6]; C57B6/J male mice): reduced fatty liver weight; insulin sensitivity ([6]; C57B6/J male mice): improves insulin sensitivity; plasma concentration [6]: at an efficacious concentration that uncouples mitochondria
"Cc1cc(Cl)cc(C(=O)Nc2nc3c(C(F)(F)F)cccc3s2)c1O [Compound 31, 5-Chloro-2-hydroxy-3-methyl-N-(4-(trifluoromethyl)benzo[d]thiazol-2-yl)benzamide]",< 10,< 10,–,–
"CC(C)c1cc(Cl)cc(C(=O)Nc2nc3ccc(C(F)(F)F)cc3s2)c1O [Compound 38, 5-Chloro-2-hydroxy-3-isopropyl-N-(6-(trifluoromethyl)benzo[d]thiazol-2-yl)benzamide]",< 10,< 10,< 10,"IC95, Concentration that reduces clonogenicity by 95% (Cancer cells): *** (*** <10 μM); effective concentration that can arrest cell cycle at G0/G1 phase [1]: *** (*** <10 μM)"
"Cc1cc(Cl)cc(C(=O)Nc2nc3c(F)cc(F)cc3s2)c1O [Compound 40, 5-Chloro-N-(4,6-difluorobenzo[d]thiazol-2-yl)-2-hydroxy-3-methylbenzamide]",< 10,< 10,< 10,–
"Cc1cc(Cl)cc(C(=O)Nc2nc3c(C(F)(F)F)cc(C(F)(F)F)cc3s2)c1O [Compound 50, N-(4,6-Bis(trifluoromethyl)benzo[d]thiazol-2-yl)-5-chloro-2-hydroxy-3-methylbenzamide]",< 10,–,< 10,–
"Cc1cc(Cl)cc(C(=O)Nc2nc3ccc(OC(F)(F)F)cc3s2)c1O [Compound 51, 5-Chloro-2-hydroxy-3-methyl-N-(6-(trifluoromethoxy)benzo[d]thiazol-2-yl)benzamide]",< 10,–,< 10,–
"O=C(Nc1nc2ccc(C(F)(F)F)cc2s1)c1cc(Cl)cc2nn[nH]c12 [Compound 58, 5-Chloro-N-(6-(trifluoromethyl)benzo[d]thiazol-2-yl)-1H-benzo[d][1,2,3]triazole-7-carboxamide]",> 25,–,> 25,–
